Experimental data as given in ChEMBL document CHEMBL1201862, “PubChem BioAssay data set” (2004).
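96-well plates; 48 h exposure; 5 concentrations. Endpoints by linear interpolation between flanking doses. Not reached: highest tested concentration assigned. At the GI50, growth is halved.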 Active and inactive are the calls of the source. Rule as the data show it: active = GI50 up to about 1.1 µM and inactive = higher.

Columns and labels:
Experiment in all cases: DTP human tumour cell line panel, 48 h
T47D = tested on: T47D
SK-MEL-5 = tested on: SK-MEL-5
HCC 2998 = tested on: HCC 2998
HT-29 = tested on: HT-29
SK-MEL-28 = tested on: SK-MEL-28
Hs-578T = tested on: Hs-578T
HCT-15 = tested on: HCT-15
UACC-62 = tested on: UACC-62
SF-295 = tested on: SF-295
SN12C = tested on: SN12C
SNB-75 = tested on: SNB-75
IGROV-1 = tested on: IGROV-1
M14 = tested on: M14
U-251 = tested on: U-251
LOX IMVI = tested on: LOX IMVI
SK-OV-3 = tested on: SK-OV-3
MDA-MB-231 = tested on: MDA-MB-231
CAKI-1 = tested on: CAKI-1
SNB-19 = tested on: SNB-19
UACC-257 = tested on: UACC-257
COLO 205 = tested on: COLO 205
786-0 = tested on: 786-0
PC-3 = tested on: PC-3
MOLT-4 = tested on: MOLT-4
DU-145 = tested on: DU-145
MCF7 = tested on: MCF7
SW-620 = tested on: SW-620
SF-539 = tested on: SF-539
NCI-H226 = tested on: NCI-H226
A549 = tested on: A549
OVCAR-4 = tested on: OVCAR-4
HOP-92 = tested on: HOP-92
NCI-H522 = tested on: NCI-H522
ACHN = tested on: ACHN
HCT-116 = tested on: HCT-116
NCI-H460 = tested on: NCI-H460
OVCAR-5 = tested on: OVCAR-5
MDA-MB-435 = tested on: MDA-MB-435
Malme-3M = tested on: Malme-3M
OVCAR-8 = tested on: OVCAR-8
SK-MEL-2 = tested on: SK-MEL-2
NCI/ADR-RES = tested on: NCI/ADR-RES
NCI-H23 = tested on: NCI-H23
HL-60 = tested on: HL-60
RPMI-8226 = tested on: RPMI-8226
SF-268 = tested on: SF-268
MDA-N = tested on: MDA-N
EKVX = tested on: EKVX
BT-549 = tested on: BT-549
KM12 = tested on: KM12
K562 = tested on: K562
TK-10 = tested on: TK-10
UO-31 = tested on: UO-31
CCRF-CEM = tested on: CCRF-CEM
OVCAR-3 = tested on: OVCAR-3
HOP-62 = tested on: HOP-62
RXF 393 = tested on: RXF 393
A498 = tested on: A498

**Q.** For `C=C(C)C1Cc2cc(C(C)=O)ccc2O1` (stereo unspecified), which GI50 (T47D) is on record?
**A.** > 100 µM (inactive)

**Q.** What about the GI50 (SK-MEL-5) of the same molecule?
**A.** > 100 µM (inactive)

**Q.** What about the GI50 (HCC 2998) of the same molecule?
**A.** > 100 µM (inactive)

**Q.** What about the GI50 (HT-29) of the same molecule?
**A.** > 100 µM (inactive)

**Q.** What about the GI50 (SK-MEL-28) of the same molecule?
**A.** > 100 µM (inactive)

**Q.** And the GI50 (Hs-578T)?
**A.** > 100 µM (inactive)

**Q.** And the GI50 (HCT-15)?
**A.** > 100 µM

**Q.** And the GI50 (UACC-62)?
**A.** > 100 µM (inactive)

**Q.** And the GI50 (SF-295)?
**A.** > 100 µM (inactive)

**Q.** And the GI50 (SN12C)?
**A.** > 100 µM (inactive)

**Q.** And the GI50 (SNB-75)?
**A.** > 100 µM (inactive)

**Q.** And the GI50 (IGROV-1)?
**A.** > 100 µM (inactive)

**Q.** And the GI50 (M14)?
**A.** > 100 µM (inactive)

**Q.** And the GI50 (U-251)?
**A.** > 100 µM (inactive)

**Q.** And the GI50 (LOX IMVI)?
**A.** > 100 µM (inactive)

**Q.** What about the GI50 (SK-OV-3) of the same molecule?
**A.** > 100 µM (inactive)

**Q.** And the GI50 (MDA-MB-231)?
**A.** > 100 µM (inactive)

**Q.** What about the GI50 (CAKI-1) of the same molecule?
**A.** > 100 µM (inactive)

**Q.** What about the GI50 (SNB-19) of the same molecule?
**A.** > 100 µM (inactive)

**Q.** What about the GI50 (UACC-257) of the same molecule?
**A.** > 100 µM (inactive)

**Q.** And the GI50 (COLO 205)?
**A.** > 100 µM (inactive)

**Q.** What about the GI50 (786-0) of the same molecule?
**A.** > 100 µM (inactive)

**Q.** What about the GI50 (PC-3) of the same molecule?
**A.** > 100 µM (inactive)

**Q.** And the GI50 (MOLT-4)?
**A.** > 100 µM (inactive)

**Q.** What about the GI50 (DU-145) of the same molecule?
**A.** > 100 µM (inactive)

**Q.** And the GI50 (MCF7)?
**A.** > 100 µM (inactive)

**Q.** What about the GI50 (SW-620) of the same molecule?
**A.** > 100 µM (inactive)

**Q.** And the GI50 (SF-539)?
**A.** > 100 µM (inactive)

**Q.** What about the GI50 (NCI-H226) of the same molecule?
**A.** > 100 µM (inactive)

**Q.** What about the GI50 (A549) of the same molecule?
**A.** > 100 µM (inactive)

**Q.** What about the GI50 (OVCAR-4) of the same molecule?
**A.** > 100 µM (inactive)

**Q.** And the GI50 (HOP-92)?
**A.** > 100 µM (inactive)

**Q.** And the GI50 (NCI-H522)?
**A.** > 100 µM (inactive)

**Q.** And the GI50 (ACHN)?
**A.** > 100 µM (inactive)

**Q.** And the GI50 (HCT-116)?
**A.** > 100 µM (inactive)

**Q.** What about the GI50 (NCI-H460) of the same molecule?
**A.** > 100 µM (inactive)

**Q.** And the GI50 (OVCAR-5)?
**A.** > 100 µM (inactive)

**Q.** And the GI50 (MDA-MB-435)?
**A.** > 100 µM (inactive)

**Q.** What about the GI50 (Malme-3M) of the same molecule?
**A.** > 100 µM (inactive)

**Q.** And the GI50 (OVCAR-8)?
**A.** > 100 µM (inactive)

**Q.** What about the GI50 (SK-MEL-2) of the same molecule?
**A.** > 100 µM (inactive)

**Q.** And the GI50 (NCI/ADR-RES)?
**A.** > 100 µM (inactive)

**Q.** And the GI50 (NCI-H23)?
**A.** > 100 µM (inactive)

**Q.** And the GI50 (HL-60)?
**A.** > 100 µM (inactive)

**Q.** And the GI50 (RPMI-8226)?
**A.** > 100 µM (inactive)

**Q.** What about the GI50 (SF-268) of the same molecule?
**A.** > 100 µM (inactive)

**Q.** And the GI50 (MDA-N)?
**A.** > 100 µM (inactive)

**Q.** What about the GI50 (EKVX) of the same molecule?
**A.** > 100 µM (inactive)

**Q.** What about the GI50 (BT-549) of the same molecule?
**A.** > 100 µM (inactive)

**Q.** And the GI50 (KM12)?
**A.** > 100 µM (inactive)

**Q.** And the GI50 (K562)?
**A.** > 100 µM (inactive)

**Q.** And the GI50 (TK-10)?
**A.** > 100 µM (inactive)

**Q.** And the GI50 (UO-31)?
**A.** > 100 µM (inactive)

**Q.** And the GI50 (CCRF-CEM)?
**A.** > 100 µM (inactive)

**Q.** And the GI50 (OVCAR-3)?
**A.** > 100 µM (inactive)

**Q.** Which GI50 (T47D) does the source give for `CC(Cc1ccccc1)Nc1ncnc2c1ncn2C1OC(CO)CC1O` (stereo unspecified) here?
**A.** > 100 µM (inactive)

**Q.** And the GI50 (SK-MEL-5)?
**A.** > 100 µM (inactive)

**Q.** What about the GI50 (HCC 2998) of the same molecule?
**A.** > 100 µM (inactive)

**Q.** What about the GI50 (HT-29) of the same molecule?
**A.** > 100 µM (inactive)

**Q.** What about the GI50 (SK-MEL-28) of the same molecule?
**A.** > 100 µM (inactive)

**Q.** What about the GI50 (Hs-578T) of the same molecule?
**A.** 58.7 µM (inactive)

**Q.** And the GI50 (HCT-15)?
**A.** > 100 µM

**Q.** And the GI50 (UACC-62)?
**A.** > 100 µM (inactive)

**Q.** And the GI50 (SF-295)?
**A.** 1.93 µM (inactive)

**Q.** What about the GI50 (SN12C) of the same molecule?
**A.** > 100 µM (inactive)

**Q.** And the GI50 (SNB-75)?
**A.** > 100 µM (inactive)

**Q.** What about the GI50 (IGROV-1) of the same molecule?
**A.** > 100 µM (inactive)

**Q.** And the GI50 (M14)?
**A.** > 100 µM (inactive)

**Q.** And the GI50 (U-251)?
**A.** > 100 µM (inactive)

**Q.** And the GI50 (LOX IMVI)?
**A.** > 100 µM (inactive)

**Q.** And the GI50 (SK-OV-3)?
**A.** 3.71 µM (inactive)

**Q.** What about the GI50 (MDA-MB-231) of the same molecule?
**A.** > 100 µM (inactive)

**Q.** What about the GI50 (CAKI-1) of the same molecule?
**A.** > 100 µM (inactive)

**Q.** What about the GI50 (SNB-19) of the same molecule?
**A.** > 100 µM (inactive)

**Q.** What about the GI50 (UACC-257) of the same molecule?
**A.** > 100 µM (inactive)

**Q.** What about the GI50 (COLO 205) of the same molecule?
**A.** > 100 µM (inactive)

**Q.** And the GI50 (786-0)?
**A.** > 100 µM (inactive)

**Q.** And the GI50 (PC-3)?
**A.** > 100 µM (inactive)

**Q.** And the GI50 (MOLT-4)?
**A.** > 100 µM (inactive)

**Q.** What about the GI50 (DU-145) of the same molecule?
**A.** > 100 µM (inactive)

**Q.** What about the GI50 (MCF7) of the same molecule?
**A.** 0.611 µM (active)

**Q.** And the GI50 (SW-620)?
**A.** > 100 µM (inactive)

**Q.** What about the GI50 (NCI-H226) of the same molecule?
**A.** > 100 µM (inactive)

**Q.** And the GI50 (A549)?
**A.** > 100 µM (inactive)

**Q.** What about the GI50 (OVCAR-4) of the same molecule?
**A.** > 100 µM (inactive)

**Q.** And the GI50 (HOP-92)?
**A.** > 100 µM (inactive)

**Q.** What about the GI50 (NCI-H522) of the same molecule?
**A.** > 100 µM (inactive)

**Q.** What about the GI50 (ACHN) of the same molecule?
**A.** > 100 µM (inactive)

**Q.** And the GI50 (HOP-62)?
**A.** > 100 µM (inactive)

**Q.** What about the GI50 (HCT-116) of the same molecule?
**A.** > 100 µM (inactive)

**Q.** And the GI50 (NCI-H460)?
**A.** > 100 µM (inactive)

**Q.** What about the GI50 (OVCAR-5) of the same molecule?
**A.** > 100 µM (inactive)

**Q.** And the GI50 (RXF 393)?
**A.** > 100 µM (inactive)

**Q.** What about the GI50 (MDA-MB-435) of the same molecule?
**A.** > 100 µM (inactive)

**Q.** What about the GI50 (A498) of the same molecule?
**A.** > 100 µM (inactive)

**Q.** What about the GI50 (Malme-3M) of the same molecule?
**A.** > 100 µM (inactive)

**Q.** And the GI50 (OVCAR-8)?
**A.** > 100 µM (inactive)

**Q.** What about the GI50 (SK-MEL-2) of the same molecule?
**A.** > 100 µM (inactive)

**Q.** What about the GI50 (NCI/ADR-RES) of the same molecule?
**A.** > 100 µM (inactive)

**Q.** And the GI50 (NCI-H23)?
**A.** > 100 µM (inactive)

**Q.** What about the GI50 (RPMI-8226) of the same molecule?
**A.** > 100 µM (inactive)

**Q.** What about the GI50 (SF-268) of the same molecule?
**A.** > 100 µM (inactive)

**Q.** What about the GI50 (MDA-N) of the same molecule?
**A.** > 100 µM (inactive)

**Q.** What about the GI50 (EKVX) of the same molecule?
**A.** > 100 µM (inactive)

**Q.** And the GI50 (BT-549)?
**A.** > 100 µM (inactive)

**Q.** What about the GI50 (KM12) of the same molecule?
**A.** > 100 µM (inactive)

**Q.** What about the GI50 (K562) of the same molecule?
**A.** > 100 µM (inactive)

**Q.** And the GI50 (TK-10)?
**A.** > 100 µM (inactive)

**Q.** What about the GI50 (UO-31) of the same molecule?
**A.** > 100 µM (inactive)

**Q.** What about the GI50 (CCRF-CEM) of the same molecule?
**A.** > 100 µM (inactive)

**Q.** What about the GI50 (OVCAR-3) of the same molecule?
**A.** > 100 µM (inactive)
